Experimental data from patent US4428936A, “Antibacterial composition for medical use” (Toyama Chemical Co., Ltd., priority 1978, dated 1984).

Experiments:
[1] = tested on: Klebsiella pneumoniae Y-4; experiment: Growth-inhibition test on clinically isolated strain (agar, about 10^8 cells/ml); assay type: cell-based; design: key: (+) means that the test bacterium grew; (-) means that the test bacterium did not grow; details: T-1551 Na 0 μg/ml; Methicillin sodium alone by line b62-b70: 3200,1600,800,400,200,100,50,25,12.5 μg/ml; 18 hours, 37° C
Experimental: (§1) Heart Infusion agar containing a prescribed amount of Methicillin sodium or T-1551 Na was inoculated with the test bacterium at a rate of about 10^8 cells/ml. After incubation for 18 hours at 37° C., the growth of the test bacterium was inspected.

[2] = tested on: Pseudomonas aeruginosa S-111; experiment: as above; assay type: cell-based; design: key: (+) means that the test bacterium grew; (-) means that the test bacterium did not grow; details: T-1551 Na 0 μg/ml; Methicillin sodium alone by line b92-b100: 3200,1600,800,400,200,100,50,25,12.5 μg/ml; 18 hours, 37° C
Experimental: as §1

Escherichia coli TK-3 [3] = experiment: as above; assay type: cell-based; design: key: (+) means that the test bacterium grew; (-) means that the test bacterium did not grow; details: T-1551 Na 0 μg/ml; Methicillin sodium alone by line b32-b40: 3200,1600,800,400,200,100,50,25,12.5 μg/ml; 18 hours, 37° C
Experimental: as §1

[4] = tested on: Klebsiella pneumoniae Y-4; experiment: Minimum inhibitory concentration; assay type: cell-based; details: Y4; Klebsiella pneumoniae Y-4 strain
Experimental: (§2) The minimum inhibitory concentration of T-1551 Na or Methicillin sodium against Escherichia coli TK-3 strain or Kleosiella pneumoniae Y-4 strain was greater than 800 μg/ml in each case.

Escherichia coli TK-3 [5] = experiment: Minimum inhibitory concentration; assay type: cell-based; details: TK3; Escherichia coli TK-3 strain
Experimental: as §2

K. pneumoniae Y-53 = experiment: Effect of combined use on experimental infection in mice (protection); assay type: in vivo, mice (ICR strain) infected with K. pneumoniae; details: challenge dose 1.0 × 10^7 cells/mouse, peritoneal; subcutaneous administration one and two hours after inoculation
From the text: (§3) Male mice (5 mice per group) of the ICR strain, 4 weeks of age, were peritoneally inoculated with the prescribed number of pathogenic bacteria suspended in 5% mucin. After one hour and two hours following the inoculation, test preparations shown in Table 5 were subcuataneously administered to examine the protection effect.

K. pneumoniae Y-4 = experiment: as above; assay type: in vivo, mice (ICR strain) infected with K. pneumoniae; details: challenge dose 5.7 × 10^7 cells/mouse, peritoneal; subcutaneous administration one and two hours after inoculation
From the text: as §3

[6] = tested on: Pseudomonas aeruginosa GN 3345; experiment: Growth-inhibition test with potassium clavulanate; assay type: cell-based; design: key: (+) means that the test bacterium grew; (-) means that the test bacterium did not grow; details: T-1551 Na 0 μg/ml; potassium clavulanate alone by line b219-b228: 100,(unlabelled),25,(unlabelled),12.5,(unlabelled),3.1,(unlabelled),0.4,(unlabelled) μg/ml
Experimental: as §1
(§4) The same operation as in Test Example 1 was repeated, except that the Methicillin sodium was replaced by potassium clavulanate and the test bacteria were replaced by those shown in Tables 6, 7 and 8, to obtain the results shown in Tables 6, 7 and 8.

Escherichia coli GN 6299 = experiment: Growth-inhibition test with potassium clavulanate; assay type: cell-based; design: key: (+) means that the test bacterium grew; (-) means that the test bacterium did not grow; details: T-1551 Na 0 μg/ml; potassium clavulanate alone by line b171,b173-b181: 100,(unlabelled),25,(unlabelled),6.25,(unlabelled),1.6,(unlabelled),0.4,(unlabelled) μg/ml
Experimental: as §1, §4

[7] = tested on: Klebsiella pneumoniae GN 69; experiment: Growth-inhibition test with potassium clavulanate; assay type: cell-based; design: key: (+) means that the test bacterium grew; (-) means that the test bacterium did not grow; details: T-1551 Na 0 μg/ml; potassium clavulanate alone by line b195,b197-b205: 100,(unlabelled),25,(unlabelled),6.25,(unlabelled),1.6,(unlabelled),0.4,(unlabelled) μg/ml
Experimental: as §1, §4

| Structure (SMILES) | growth of the test bacterium [1] | growth of the test bacterium [2] | growth of the test bacterium (Escherichia coli TK-3 [3]) | MIC [4] [µg/mL] | MIC (Escherichia coli TK-3 [5]) [µg/mL] | ED50 (protection effect) (K. pneumoniae Y-53) [mg/mouse] | ED50 (protection effect) (K. pneumoniae Y-4) [mg/mouse] | growth of the test bacterium [6] | growth of the test bacterium (Escherichia coli GN 6299) | growth of the test bacterium [7] |
| --- | --- | --- | --- | --- | --- | --- | --- | --- | --- | --- |
| COc1cccc(OC)c1C(=O)N[C@@H]1C(=O)N2[C@@H]1SC(C)(C)[C@@H]2C(=O)O [Methicillin sodium, reference compound] | + | + | + | > 800 | > 800 | > 46.6 | > 50 |  |  |  |
| O=C(O)[C@H]1/C(=C/CO)O[C@@H]2CC(=O)N21 [Potassium clavulanate, potassium clavulanate, reference compound] |  |  |  |  |  |  |  | + | - and + | - and + |
